Experiment [1] concerns the target T1, pVHL-elongin B-elongin C (VBC) complex (Homo sapiens, UniProt P40337+Q15369+Q15370).
T1 construct: a construct encoding N-terminal GST-tagged pVHL19 (54–213); GST (N, cleaved yes); made in house; host or cells: BL21(DE3) E. coli
The experiment is described as follows: Biolayer interferometry kinetic analysis of VBC complex binding to biotinylated HIF-2α peptides. The following applies: for ka (association rate): purified VBC. The protocol: Absorbance was read at 450 nm. […] The data were analyzed based on a 1:1 binding model using the BLItz Pro software with the fitted curves shown as gray lines. […] Values represent mean of three experiments conducted with independently purified protein ± SEM. * denotes uncharacterized band
Multiple concentrations of purified VBC complex were diluted in kinetics buffer and allowed to associate with immobilized peptide over 120 s. Subsequently, the SA-BLI probe was immersed into kinetics buffer for 120 s to allow for dissociation. The data were analyzed, step corrected, reference corrected, and fit to a global 1:1 binding model. Kd, ka, and kd were calculated using the BLItz Pro software.

Experiment [2] relates to HIS6-PHD2 (181–426). The experiment is described as follows: In vitro hydroxylation assay (HIS6-PHD2 treatment, then IVTT pVHL pull-down). The format is biochemical. Particulars: unmodified biotinylated peptides, 15 μg/mL HIS6-PHD2 (181–426), 1 h room temperature, then IVTT HA-VHL30 under stringent buffer. How it is done: Considering that prolyl hydroxylation is indispensable for HIF-2α binding to pVHL, we next examined the notion that the A530V mutation negatively influences hydroxylation of HIF-2α via PHD2, which would attenuate HIF-2α A530V binding affinity for pVHL. We conducted an in vitro hydroxylation assay utilizing unmodified peptides (amino acids 523–542) incubated with purified HIS6-PHD2 (catalytic core, amino acids 181–426).
Fig. 5 A subset of class 1 mutations specifically disrupts PHD2-mediated hydroxylation. a, b Biotinylated HIF-2α peptides (residues 523–542) were immobilized on streptavidin- agarose beads and incubated with HIS6-PHD2 for 1 h at room temperature prior to incubation with in vitro transcribed and translated (IVTT) pVHL. Streptavidin beads were pulled down (PD) and levels of HA-tagged pVHL were visualized via immmunoblotting (IB). c HEK293a cells were co-transfected with FLAG-VHL and HA-HIF-2α constructs. FLAG was immunoprecipitated (IP) and levels of HA-tagged HIF-2α were visualized via immunoblotting (IB). * denotes uncharacterized band
The in vitro pVHL-HIF-2α hydroxylation assay was performed according to a previously published protocol. 5 μg of biotinylated HIF-2α peptide was immobilized on streptavidin-agarose beads. Subsequently, peptides were incubated with 15 μg/mL HIS6-PHD2 (181–426) in 500 μL of 40 mM HEPES pH 7.4, 80 mM KCl, 5 mM a-ketoglutarate, 2 mM ascorbic acid, 100 μM FeCl2 tetrahydrate solution at room temperature for 1 h. FeCl2 was stored under anoxic conditions to prevent oxidation. Following hydroxylation, beads were washed 5x with EBC buffer and peptides were incubated with IVTT HA-VHL30 under the stringent buffer conditions described above.

In experiment [3] the test system is HIS6-PHD2 (181–426). As to the kind of experiment: Steady-state pull-down of purified HIS6-PHD2 with biotinylated HIF-2α peptides. Particulars: peptides (523–542), purified HIS6-PHD2 (181–426), with 1 mM MnCl2 and 1 mM NOG, 2 h at 4 °C. The experiment is classed as binding. An excerpt:
To first test this hypothesis, we performed steady-state pull-down experiments with HIF-2α peptides (523–542) and purified HIS6-PHD2 (181–426). To stabilize the interaction between enzyme and substrate, it was necessary to include MnCl2 and N-oxalylglycine (NOG) in the binding buffer. Mn^2+ and NOG substitute for Fe^2+ and αKG, respectively, which stabilizes the HIF-2α-PHD2 interaction while preventing enzymatic turnover. A similar strategy was employed during co-crystallization of HIF-1α peptide with PHD2[43]. We observed that […] tested HIF-2α mutations result in decreased affinity for PHD2 (Supplementary Figure 6a). […] Next, we co-transfected HEK293a cells with 3xFLAG-HIF-2α ODD and HA-PHD2 constructs. […] The increased binding of the M535I mutant to PHD2 was not observed in this experiment. One important caveat is that the HIF-2α ODD constructs contain both the P405 and P531 sites. Thus, the residual PHD2 binding observed among HIF-2α mutants may partially be driven by the P405 site, which may mask differential PHD2 binding among the HIF-2α mutant ODD constructs.
5 μg of biotinylated HIF-2α peptide (WT or mutant) was immobilized on streptavidin agarose beads and incubated with a […] solution of purified HIS6-PHD2 (181–426) in 50 mM Tris-HCl pH 7.5, 0.005% (v/v) Tween-20 buffer supplemented with or without 1 mM MnCl2 and 1 mM NOG, for 2 h at 4 °C. Beads were washed 2x with the same buffer. Biotinylated peptide was pulled down via streptavidin agarose beads and protein was eluted by boiling beads in sample buffer. Protein levels of HIS6-PHD2 were determined by western blotting. Uncropped western blots are provided in Supplementary Figure 8.
Supplementary Figure 6. HIF-2α mutations disrupt PHD2 binding. (A) Biotinylated HIF-2α peptides (523-542, except where noted) were immobilized on streptavidin- agarose beads and incubated with purified HIS6-PHD2 (181-426) in the presence or absence of 1 mM MnCl2 and 1 mM N-oxalylglycine (NOG).
Streptavidin beads were pulled down (PD) and levels of HIS6-tagged PHD2 were visualized via immmunoblotting (IB). […]

Setting [4] is: BLItz biolayer interferometry, peptide (523–541) immobilized, global 1:1 model, mean of three experiments ± SEM.

No end group written: not given here. *: point of attachment. Biotin = O=C1N[C@H]2[C@H](CS[C@H]2CCCCC(=O)*)N1

T1 sequence (P40337 54-213): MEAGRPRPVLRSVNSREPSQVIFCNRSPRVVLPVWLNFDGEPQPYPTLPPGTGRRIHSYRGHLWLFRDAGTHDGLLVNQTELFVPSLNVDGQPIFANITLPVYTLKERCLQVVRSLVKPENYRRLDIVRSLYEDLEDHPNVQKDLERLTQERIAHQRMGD
T1 sequence (Q15370 whole entry partner): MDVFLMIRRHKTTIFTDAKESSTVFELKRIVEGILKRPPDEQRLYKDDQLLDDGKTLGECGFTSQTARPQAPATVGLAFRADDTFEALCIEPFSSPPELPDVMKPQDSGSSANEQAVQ
T1 sequence (Q15369 17-112 partner limits assumed): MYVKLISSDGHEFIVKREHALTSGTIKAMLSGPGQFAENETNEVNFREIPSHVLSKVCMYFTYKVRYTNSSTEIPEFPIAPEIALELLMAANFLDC

Consider `CC[C@H](C)[C@H](NC(=O)[C@@H]1CCCN1C(=O)[C@@H](NC(=O)[C@H](Cc1ccc(O)cc1)NC(=O)[C@@H]1C[C@@H](O)CN1C(=O)[C@H](C)NC(=O)[C@H](CC(C)C)NC(=O)[C@@H](NC(=O)[C@H](CCC(=O)O)NC(=O)[C@H](CC(C)C)NC(=O)[C@H](CC(=O)O)NC(=O)[C@H](CC(C)C)NC(=O)[C@H](CCC(=O)O)NC(=O)CCCC[C@@H]1SC[C@@H]2NC(=O)N[C@@H]21)[C@@H](C)O)[C@@H](C)CC)C(=O)N[C@@H](CC(=O)O)C(=O)NCC(=O)N[C@@H](CCC(=O)O)C(=O)N[C@@H](CC(=O)O)C(=O)N[C@@H](Cc1ccccc1)C(=O)N[C@@H](CCC(N)=O)C(N)=O` [HIF-2αOH (M535I)], for which the “binding to VBC compared to WT (in words)” value in experiment [1] (BLI, HIF-2αOH peptides (523–541)) is given as “little defect”. Moreover, the “ka (association rate)” value in experiment [1] (setting [4]) is listed as 3.1 ± 0.2 x10^4 Ms^−1.

For the compound `CC[C@H](C)[C@H](NC(=O)[C@H](CS)NC(=O)[C@@H]1C[C@@H](O)CN1C(=O)[C@H](C)NC(=O)[C@H](CC(C)C)NC(=O)[C@@H](NC(=O)[C@H](CCC(=O)O)NC(=O)[C@H](CC(C)C)NC(=O)[C@H](CC(=O)O)NC(=O)[C@H](CC(C)C)NC(=O)[C@H](CCC(=O)O)NC(=O)CCCC[C@@H]1SC[C@@H]2NC(=O)N[C@@H]21)[C@@H](C)O)C(=O)N1CCC[C@H]1C(=O)N[C@@H](CCSC)C(=O)N[C@@H](CC(=O)O)C(=O)NCC(=O)N[C@@H](CCC(=O)O)C(=O)N[C@@H](CC(=O)O)C(=O)N[C@@H](Cc1ccccc1)C(=O)N[C@@H](CCC(N)=O)C(N)=O` [HIF-2αOH (Y532C)], the “ka (association rate)” value in experiment [1] (setting [4]) is 4.9 ± 0.2 x10^4 Ms^−1.

In the case of `CC[C@H](C)[C@H](NC(=O)[C@H](Cc1ccc(O)cc1)NC(=O)[C@@H]1C[C@@H](O)CN1C(=O)[C@H](C)NC(=O)[C@H](CC(C)C)NC(=O)[C@@H](NC(=O)[C@H](CCC(=O)O)NC(=O)[C@H](CC(C)C)NC(=O)[C@H](CC(=O)O)NC(=O)[C@H](CC(C)C)NC(=O)[C@@H](N)CCC(=O)O)[C@@H](C)O)C(=O)N1CCC[C@H]1C(=O)N[C@@H](CCSC)C(=O)N[C@@H](CC(=O)O)C(=O)NCC(=O)N[C@@H](CCC(=O)O)C(=O)N[C@@H](CC(=O)O)C(=O)N[C@@H](Cc1ccccc1)C(=O)N[C@@H](CCC(N)=O)C(N)=O` [HIF-2αOH (wild-type)], the “ka (association rate)” value in experiment [1] (BLI, 1:1 model) is 41000 M/s; in experiment [1] (setting [4]), 4.1 ± 0.4 x10^4 Ms^−1.

Take “Bio-HIF-2α(A530T): unmodified HIF-2α peptide (523–542) with A530T mutation (Biotin-ELDLETLTPYIPMDGEDFQL-NH2; SMILES CC[C@H](C)[C@H](NC(=O)[C@H](Cc1ccc(O)cc1)NC(=O)[C@@H]1CCCN1C(=O)[C@@H](NC(=O)[C@H](CC(C)C)NC(=O)[C@@H](NC(=O)[C@H](CCC(=O)O)NC(=O)[C@H](CC(C)C)NC(=O)[C@H](CC(=O)O)NC(=O)[C@H](CC(C)C)NC(=O)[C@H](CCC(=O)O)NC(=O)CCCC[C@@H]1SC[C@@H]2NC(=O)N[C@@H]21)[C@@H](C)O)[C@@H](C)O)C(=O)N1CCC[C@H]1C(=O)N[C@@H](CCSC)C(=O)N[C@@H](CC(=O)O)C(=O)NCC(=O)N[C@@H](CCC(=O)O)C(=O)N[C@@H](CC(=O)O)C(=O)N[C@@H](Cc1ccccc1)C(=O)N[C@@H](CCC(N)=O)C(=O)N[C@@H](CC(C)C)C(N)=O)”: in the experiment with HIS6-PHD2 (181–426) [2], the “binding to pVHL following HIS6-PHD2 treatment (immunoblot, in words)” value (“binding … (immunoblot, in words)” below) is on record as “only minimally able to bind pVHL”.

As to “Bio-HIF-2α(A530V): unmodified HIF-2α peptide (523–542) with A530V mutation (Biotin-ELDLETLVPYIPMDGEDFQL; UniProt Q99814 523-542, looked up, fragment A530V)”, in the experiment on HIS6-PHD2 (181–426) [2], the “binding … (immunoblot, in words)” value was “only minimally able to bind pVHL”.

Take “Bio-HIF-2α(M535I): unmodified HIF-2α peptide (523–542) with M535I mutation (Biotin-ELDLETLAPYIPIDGEDFQL-NH2; SMILES CC[C@H](C)[C@H](NC(=O)[C@@H]1CCCN1C(=O)[C@@H](NC(=O)[C@H](Cc1ccc(O)cc1)NC(=O)[C@@H]1CCCN1C(=O)[C@H](C)NC(=O)[C@H](CC(C)C)NC(=O)[C@@H](NC(=O)[C@H](CCC(=O)O)NC(=O)[C@H](CC(C)C)NC(=O)[C@H](CC(=O)O)NC(=O)[C@H](CC(C)C)NC(=O)[C@H](CCC(=O)O)NC(=O)CCCC[C@@H]1SC[C@@H]2NC(=O)N[C@@H]21)[C@@H](C)O)[C@@H](C)CC)C(=O)N[C@@H](CC(=O)O)C(=O)NCC(=O)N[C@@H](CCC(=O)O)C(=O)N[C@@H](CC(=O)O)C(=O)N[C@@H](Cc1ccccc1)C(=O)N[C@@H](CCC(N)=O)C(=O)N[C@@H](CC(C)C)C(N)=O)”: the “affinity for PHD2 in steady-state pull-down (immunoblot, in words)” value with HIS6-PHD2 (181–426) [3] was “not as deleterious”. For the same compound, in the experiment with HIS6-PHD2 (181–426) [2], the “binding … (immunoblot, in words)” value was “still retained affinity for pVHL”.

On to “HIF-2α (wild-type): biotinylated non-hydroxylated wild-type HIF-2α peptide, residues 523–541”, for which the “binding … (immunoblot, in words)” value in the experiment on HIS6-PHD2 (181–426) [2] was “failed to bind pVHL”.

As to “HIF-2α L542P peptide: unmodified HIF-2α peptide (523–542) with class 1 mutation L542P (Biotin-ELDLETLAPYIPMDGEDFQP-NH2; SMILES CC[C@H](C)[C@H](NC(=O)[C@H](Cc1ccc(O)cc1)NC(=O)[C@@H]1CCCN1C(=O)[C@H](C)NC(=O)[C@H](CC(C)C)NC(=O)[C@@H](NC(=O)[C@H](CCC(=O)O)NC(=O)[C@H](CC(C)C)NC(=O)[C@H](CC(=O)O)NC(=O)[C@H](CC(C)C)NC(=O)[C@H](CCC(=O)O)NC(=O)CCCC[C@@H]1SC[C@@H]2NC(=O)N[C@@H]21)[C@@H](C)O)C(=O)N1CCC[C@H]1C(=O)N[C@@H](CCSC)C(=O)N[C@@H](CC(=O)O)C(=O)NCC(=O)N[C@@H](CCC(=O)O)C(=O)N[C@@H](CC(=O)O)C(=O)N[C@@H](Cc1ccccc1)C(=O)N[C@@H](CCC(N)=O)C(=O)N1CCC[C@H]1C(N)=O)”, in the experiment on HIS6-PHD2 (181–426) [2], the “binding … (immunoblot, in words)” value is listed as “failed to bind pVHL”.

The record behind these values is paper PMC6105673 (Nature Communications, 2018).
